Laboratory results published in ChEMBL document CHEMBL5678818, “Discovery of potent SOS1 inhibitors that block RAS activation via disruption of the RAS-SOS1 interaction” (Proc Natl Acad Sci U S A, 2019).

Legend:
[1] = target: GTPase KRas (Homo sapiens, UniProt P01116, G12C); test: Inhibition of N-terminal GST-tagged recombinant human KRAS G12C mutant (1 to 169 residues) expressed in Escherichia coli assessed as reduction in intrinsic GTP exchange preincubated for 10 mins with KRAS followed by SOS1 addition measured after 30 mins in presence of EDA-GTP-DY-647P1 by HTRF analysis
[2] = target: T1, Cyclin-dependent kinase-like 5 (Homo sapiens) (UniProt O76039); test: Inhibition of CDKL5 (unknown origin) assessed as residual activity at 100 nM by KINOMEscan analysis relative to control
T1 sequence (whole entry): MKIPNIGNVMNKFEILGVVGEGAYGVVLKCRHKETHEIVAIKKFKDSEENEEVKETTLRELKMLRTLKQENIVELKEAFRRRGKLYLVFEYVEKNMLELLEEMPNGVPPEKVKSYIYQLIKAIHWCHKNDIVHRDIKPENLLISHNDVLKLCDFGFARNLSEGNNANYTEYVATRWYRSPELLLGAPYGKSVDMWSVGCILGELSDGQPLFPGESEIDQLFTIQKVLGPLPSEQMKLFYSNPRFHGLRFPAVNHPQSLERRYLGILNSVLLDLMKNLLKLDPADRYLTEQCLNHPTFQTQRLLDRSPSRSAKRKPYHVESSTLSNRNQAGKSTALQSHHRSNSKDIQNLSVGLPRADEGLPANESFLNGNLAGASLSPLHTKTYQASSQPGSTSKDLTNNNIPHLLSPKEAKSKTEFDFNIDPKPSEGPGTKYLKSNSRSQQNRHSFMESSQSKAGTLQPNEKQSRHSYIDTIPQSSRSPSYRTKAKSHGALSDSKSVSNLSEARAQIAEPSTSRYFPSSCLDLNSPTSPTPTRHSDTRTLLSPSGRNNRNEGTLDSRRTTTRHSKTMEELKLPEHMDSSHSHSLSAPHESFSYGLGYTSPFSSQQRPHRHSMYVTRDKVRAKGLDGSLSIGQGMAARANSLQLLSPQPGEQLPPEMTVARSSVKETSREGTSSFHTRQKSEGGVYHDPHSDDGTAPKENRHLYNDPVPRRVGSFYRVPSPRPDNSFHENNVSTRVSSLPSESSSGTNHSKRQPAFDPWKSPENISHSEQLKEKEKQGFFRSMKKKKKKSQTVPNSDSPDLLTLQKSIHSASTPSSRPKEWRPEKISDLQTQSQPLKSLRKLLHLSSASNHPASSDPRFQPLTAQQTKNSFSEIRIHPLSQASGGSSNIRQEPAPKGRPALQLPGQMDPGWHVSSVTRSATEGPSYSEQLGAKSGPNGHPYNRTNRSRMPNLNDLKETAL

[3] = target: Ephrin type-A receptor 2 (Homo sapiens) (UniProt P29317); test: Inhibition of EPHA2 (unknown origin) assessed as residual activity at 100 nM by KINOMEscan analysis relative to control
[4] = target: T2, Serine/threonine-protein kinase Nek1 (Homo sapiens) (UniProt Q96PY6); test: Inhibition of NEK1 (unknown origin) assessed as residual activity at 100 nM by KINOMEscan analysis relative to control
T2 sequence (whole entry): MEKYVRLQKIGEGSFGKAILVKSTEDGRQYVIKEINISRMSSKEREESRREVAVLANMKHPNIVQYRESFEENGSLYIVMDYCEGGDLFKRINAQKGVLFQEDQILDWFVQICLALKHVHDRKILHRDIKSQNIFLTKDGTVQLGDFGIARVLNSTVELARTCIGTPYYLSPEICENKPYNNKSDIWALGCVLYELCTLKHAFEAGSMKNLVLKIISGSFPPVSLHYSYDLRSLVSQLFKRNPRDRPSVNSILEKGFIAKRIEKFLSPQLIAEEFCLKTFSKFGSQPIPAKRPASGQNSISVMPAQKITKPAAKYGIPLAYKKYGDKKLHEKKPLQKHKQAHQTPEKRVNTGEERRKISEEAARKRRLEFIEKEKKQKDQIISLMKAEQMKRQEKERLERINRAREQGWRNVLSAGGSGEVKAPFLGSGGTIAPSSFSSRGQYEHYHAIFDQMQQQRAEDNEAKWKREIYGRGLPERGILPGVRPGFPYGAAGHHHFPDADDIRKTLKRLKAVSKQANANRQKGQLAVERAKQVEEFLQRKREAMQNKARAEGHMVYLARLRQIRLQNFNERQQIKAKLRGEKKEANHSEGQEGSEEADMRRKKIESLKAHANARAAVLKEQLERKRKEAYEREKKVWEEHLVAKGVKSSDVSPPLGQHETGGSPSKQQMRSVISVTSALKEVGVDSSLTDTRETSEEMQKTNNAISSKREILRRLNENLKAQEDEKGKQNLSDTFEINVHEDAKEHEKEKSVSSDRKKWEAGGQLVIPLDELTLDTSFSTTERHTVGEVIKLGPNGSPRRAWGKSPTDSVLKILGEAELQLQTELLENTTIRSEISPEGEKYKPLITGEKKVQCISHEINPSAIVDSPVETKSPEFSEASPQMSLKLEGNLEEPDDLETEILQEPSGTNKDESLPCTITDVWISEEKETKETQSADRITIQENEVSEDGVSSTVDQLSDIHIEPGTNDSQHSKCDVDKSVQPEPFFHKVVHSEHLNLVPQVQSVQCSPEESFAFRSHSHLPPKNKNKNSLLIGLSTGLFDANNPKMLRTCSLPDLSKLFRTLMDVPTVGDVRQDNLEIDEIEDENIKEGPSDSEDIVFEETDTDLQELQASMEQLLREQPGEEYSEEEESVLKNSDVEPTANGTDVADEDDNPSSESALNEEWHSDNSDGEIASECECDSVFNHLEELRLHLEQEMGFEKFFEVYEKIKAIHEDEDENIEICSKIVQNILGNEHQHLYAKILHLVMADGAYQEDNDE

In the case of COc1cc2ncnc(N[C@H](C)c3cccc4ccccc34)c2cc1OC, the IC50 [1] is reported as greater than 20 µM, the Activity [2] is reported as 96% and the Activity [3] is reported as 82%. The Activity [4] was 100%.
